The record followed here is ChEMBL document CHEMBL1136068 (Bioorg Med Chem Lett, 2003).

One assay concerns the target T1, Glucocorticoid receptor (Homo sapiens, UniProt P04150).
T1 sequence (P04150 whole entry): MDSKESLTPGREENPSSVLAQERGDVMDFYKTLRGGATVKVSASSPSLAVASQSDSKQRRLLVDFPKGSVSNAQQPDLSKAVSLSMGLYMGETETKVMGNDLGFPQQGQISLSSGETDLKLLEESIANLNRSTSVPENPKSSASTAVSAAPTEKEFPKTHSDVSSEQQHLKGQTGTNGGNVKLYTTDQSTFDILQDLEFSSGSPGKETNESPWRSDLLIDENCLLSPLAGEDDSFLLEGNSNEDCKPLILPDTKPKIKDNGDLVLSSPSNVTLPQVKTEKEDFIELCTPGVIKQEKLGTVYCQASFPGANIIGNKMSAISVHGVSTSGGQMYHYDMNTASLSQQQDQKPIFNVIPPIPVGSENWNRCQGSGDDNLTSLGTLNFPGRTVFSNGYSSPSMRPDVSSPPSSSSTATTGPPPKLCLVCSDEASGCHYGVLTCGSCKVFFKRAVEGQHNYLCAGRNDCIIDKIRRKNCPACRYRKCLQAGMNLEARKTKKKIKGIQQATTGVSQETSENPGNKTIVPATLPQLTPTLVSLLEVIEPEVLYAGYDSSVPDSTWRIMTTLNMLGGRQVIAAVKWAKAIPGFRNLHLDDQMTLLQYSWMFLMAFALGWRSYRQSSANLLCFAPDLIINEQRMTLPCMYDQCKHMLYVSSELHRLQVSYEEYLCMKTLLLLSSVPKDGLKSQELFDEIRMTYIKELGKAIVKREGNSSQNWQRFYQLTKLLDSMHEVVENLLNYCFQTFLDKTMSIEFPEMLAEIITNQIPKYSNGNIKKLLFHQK
Nature of the assay: Antagonist activity at glucocorticoid (hGR) receptor. The class given is functional.

For assay [1], the target named is T2, Estrogen receptor (Homo sapiens, UniProt Q92731+P03372). The assay is described as follows: Inhibitory activity against human Estrogen receptor; not active. It counts as protein assay.
For assay [2], the target named is T2, Estrogen receptor. Nature of the assay: Antagonist efficacy with estrogen (hER) receptor; not active. It counts as functional.
Assay [3] addresses T3, Mineralocorticoid receptor (Homo sapiens, UniProt P08235).
T3 sequence (P08235 whole entry): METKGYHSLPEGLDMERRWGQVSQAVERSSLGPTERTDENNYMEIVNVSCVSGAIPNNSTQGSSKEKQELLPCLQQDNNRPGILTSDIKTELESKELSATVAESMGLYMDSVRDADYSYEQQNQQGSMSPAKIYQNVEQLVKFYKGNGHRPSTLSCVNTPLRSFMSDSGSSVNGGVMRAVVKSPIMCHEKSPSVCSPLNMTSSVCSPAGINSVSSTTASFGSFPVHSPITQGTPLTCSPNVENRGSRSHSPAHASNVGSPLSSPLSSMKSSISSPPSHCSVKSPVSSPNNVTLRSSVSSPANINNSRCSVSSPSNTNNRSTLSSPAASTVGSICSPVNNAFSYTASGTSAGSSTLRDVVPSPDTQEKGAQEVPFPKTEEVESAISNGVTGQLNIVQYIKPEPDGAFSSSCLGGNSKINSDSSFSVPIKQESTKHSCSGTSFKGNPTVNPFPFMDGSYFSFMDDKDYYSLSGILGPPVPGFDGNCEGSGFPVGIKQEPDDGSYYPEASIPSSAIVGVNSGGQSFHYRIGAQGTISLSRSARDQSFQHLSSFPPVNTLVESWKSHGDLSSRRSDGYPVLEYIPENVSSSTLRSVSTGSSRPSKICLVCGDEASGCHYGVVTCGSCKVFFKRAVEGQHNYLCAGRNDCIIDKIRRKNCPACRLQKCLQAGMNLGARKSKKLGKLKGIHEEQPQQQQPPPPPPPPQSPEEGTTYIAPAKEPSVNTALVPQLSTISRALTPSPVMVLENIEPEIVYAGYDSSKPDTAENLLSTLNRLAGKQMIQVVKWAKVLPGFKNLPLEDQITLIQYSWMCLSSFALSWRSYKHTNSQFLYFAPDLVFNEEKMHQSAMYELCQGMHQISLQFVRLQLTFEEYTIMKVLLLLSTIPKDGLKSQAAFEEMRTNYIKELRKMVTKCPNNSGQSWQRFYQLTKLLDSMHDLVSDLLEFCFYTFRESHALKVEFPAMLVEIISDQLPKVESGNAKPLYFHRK
The assay is described as follows: Antagonist activity at mineralocorticoid receptor (hMR); not active. The class given is functional.

Assay [4] addresses T4, Mineralocorticoid receptor (Homo sapiens) (UniProt P08235).
T4 sequence (whole entry): T3 sequence (P08235 whole entry)
Nature of the assay: Antagonist efficacy at mineralocorticoid receptor (hMR); not active. It counts as functional.

Assay [5] concerns the target T5, Progesterone receptor (Homo sapiens) (UniProt P06401).
T5 sequence (whole entry): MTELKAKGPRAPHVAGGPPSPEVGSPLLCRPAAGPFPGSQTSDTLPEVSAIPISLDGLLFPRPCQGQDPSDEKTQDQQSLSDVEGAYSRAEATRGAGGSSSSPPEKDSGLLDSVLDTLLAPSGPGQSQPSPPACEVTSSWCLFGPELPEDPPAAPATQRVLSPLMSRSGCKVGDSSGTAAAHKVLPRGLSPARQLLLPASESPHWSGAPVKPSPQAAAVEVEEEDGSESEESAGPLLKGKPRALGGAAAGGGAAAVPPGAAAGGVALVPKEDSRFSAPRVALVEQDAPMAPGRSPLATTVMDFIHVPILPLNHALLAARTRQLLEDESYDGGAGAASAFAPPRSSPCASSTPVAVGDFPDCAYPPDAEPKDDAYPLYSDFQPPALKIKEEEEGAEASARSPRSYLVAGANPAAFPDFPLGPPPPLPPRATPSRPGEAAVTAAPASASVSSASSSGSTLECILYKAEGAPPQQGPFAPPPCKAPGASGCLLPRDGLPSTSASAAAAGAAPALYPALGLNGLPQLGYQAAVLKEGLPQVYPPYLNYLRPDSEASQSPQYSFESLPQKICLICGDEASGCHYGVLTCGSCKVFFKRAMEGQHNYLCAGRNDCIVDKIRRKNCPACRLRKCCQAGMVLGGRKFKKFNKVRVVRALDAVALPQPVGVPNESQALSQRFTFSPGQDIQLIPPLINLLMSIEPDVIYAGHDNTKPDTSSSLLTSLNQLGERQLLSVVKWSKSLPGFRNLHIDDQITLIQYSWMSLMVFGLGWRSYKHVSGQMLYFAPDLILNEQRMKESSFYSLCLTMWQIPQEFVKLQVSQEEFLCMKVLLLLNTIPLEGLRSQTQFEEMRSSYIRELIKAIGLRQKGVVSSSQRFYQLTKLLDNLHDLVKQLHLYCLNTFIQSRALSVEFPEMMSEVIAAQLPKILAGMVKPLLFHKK
The assay is described as follows: Agonist efficacy towards human progesterone receptor (hPR) using the cotransfection assay in CV-1 cells. It counts as functional, cell-based.

Assay [6] addresses T6, Progesterone receptor (Homo sapiens, UniProt P06401).
T6 sequence (P06401 whole entry): T5 sequence (whole entry)
The assay is described as follows: Effective concentration for agonist activity towards human progesterone receptor (hPR) using the cotransfection assay in CV-1 cells. The class given is functional, cell-based.

Assay [7] addresses T5, Progesterone receptor (Homo sapiens). Nature of the assay: Antagonistic efficacy towards human progesterone receptor (hPR) using the cotransfection assay in CV-1 cells; Not active. The class given is functional, cell-based.
For assay [8], the target named is T6, Progesterone receptor. Nature of the assay: Inhibitory concentration for antagonistic activity towards human progesterone receptor (hPR) using the cotransfection assay in CV-1 cells; Not active. The class given is functional, cell-based.
Assay [9] deals with T6, Progesterone receptor. The assay is described as follows: Binding affinity to human progesterone receptor.

Molecules are shown by their SMILES. pEC50, pIC50, pKi: −log10 of the molar value. The source made the active and inactive calls. The rule behind the calls is not given here.

Take `CC(C)=C/C=C1\Oc2ccc(F)cc2-c2ccc3c(c21)C(C)=CC(C)(C)N3`: the pIC50 is 6.75 at Glucocorticoid receptor and below 6.00 in [3]. Also, the concentration for half-maximal inhibition (IC50) is above 1000 nM against Estrogen receptor [1] and “Not Active” against Progesterone receptor [8]. The Efficacy was below 20% on Estrogen receptor [2], below 20% in assay [4] and 172% in assay [5]. Also, at Progesterone receptor [6], the negative logarithm of the EC50 (pEC50) is 8.77. Further, the Efficacy result in assay [7] was “inactive”.
Turning to `CC(=O)C[C@]1(C(C)=O)CC[C@H]2C3C[C@H](C)C4=CC(=O)CC[C@]4(C)[C@H]3CC[C@@]21C` (stereo partly drawn), the pIC50 is 8.00 at Glucocorticoid receptor and below 6.00 in assay [3]. Also, the half-maximal inhibitory concentration (IC50) on Estrogen receptor [1] is above 1000 nM; at Progesterone receptor [8], “Not Active”. In addition, the Efficacy was below 20% at Estrogen receptor [2], below 20% in assay [4] and 80% in [5]. Besides, the pEC50 at Progesterone receptor [6] is 9.82. The Efficacy entry in assay [7] is “inactive”. Further, the pKi at Progesterone receptor [9] is 9.47.
Take `CC1=CC(C)(C)Nc2ccc3c(c21)/C(=C/Br)Oc1ccc(F)cc1-3`: the IC50 on Estrogen receptor [1] was above 1000 nM; against Progesterone receptor [8], “Not Active”. The Efficacy was below 20% at Estrogen receptor [2], below 20% in assay [4] and 135% in [5]. For the same molecule, in assay [3], the negative-log IC50 (pIC50) is below 6.00. Further, the negative-log EC50 (pEC50) on Progesterone receptor [6] was 8.66. Moreover, in assay [7], the Efficacy entry is “inactive”. Moreover, the negative logarithm of the Ki (pKi) at Progesterone receptor [9] was 8.68.
On to `CC/C(C)=C1\Oc2ccc(F)cc2-c2ccc3c(c21)C(C)=CC(C)(C)N3`, for which the Efficacy in assay [5] came to 112%. The same molecule gave a pEC50 at Progesterone receptor [6] of 7.96. For the same molecule, the Efficacy entry in assay [7] was “inactive”. For the same molecule, on Progesterone receptor [9], the negative logarithm of the Ki (pKi) is 8.10. The IC50 entry against Progesterone receptor [8] is on record as “Not Active”.

Broadly, the pIC50 is −log10 of the IC50, conventionally taken in molar units. By IC50 is commonly meant the concentration that inhibits the measured activity by half. Higher therefore signals lower potency. By pEC50 is commonly meant the negative decadic logarithm of the EC50, by convention in mol/L. Low readings indicate a high EC50, high ones a low EC50. As usually defined, the pKi is the Ki on a negative log10 scale, so that one unit is a factor of ten.
